Assay results as given in PMC4522690 (Journal of medicinal chemistry, 2015).

Legend:
[1] = blood–brain barrier penetration; cited from earlier work
[2] = molecular target: PR20 (Human immunodeficiency virus type 1, UniProt P03366, D530N/I547V/I584V, form not given); assay: Kinetic assay of PR20 proteolytic activity with fluorogenic substrate; format: biochemical, HIV-1; conditions: versus darunavir KL 41 nM
[3] = system: TFR-PR20; assay: Inhibition of N-terminal autoprocessing of mutant precursor in E. coli; format: cell-based, HIV-1; conditions: tests up to 100 μM concentration
[4] = molecular target: T1, TFR-PR (Human immunodeficiency virus type 1, UniProt P03366); assay: Inhibition of N-terminal autoprocessing of wild-type precursor in E. coli; format: cell-based, HIV-1
[5] = system: highly darunavir resistant strain of HIV-1; conditions: strain selected in the laboratory; cited from earlier work
[6] = system: PR20; conditions: compared with darunavir or wild-type PR; cited from earlier work
[7] = system: TFR-PR20; conditions: cited from earlier work
[8] = system: PR20; assay: Kinetic assay of PR20 proteolytic activity with fluorogenic substrate; format: biochemical, HIV-1; conditions: Ki PR20 / Ki wild-type PR
[9] = molecular target: T1, TFR-PR; conditions: cited from earlier work

SMILES	inhibition of autoprocessing of TFR-PR20 precursor [3]	IC50 [4]	inhibition of autoprocessing of PR20-containing precursors (in words) [7]	inhibition of autoprocessing of TFR-PR relative to other clinical protease inhibitors (in words) [9]	further results
CC(C)CN(C[C@@H](O)[C@H](Cc1ccccc1)NC(=O)O[C@H]1CO[C@H]2OCC(F)(F)[C@H]21)S(=O)(=O)c1ccc(N)cc1 [GRL-5010A]	no significant improvement was observed in the inhibition	1000 to 2000 nM			fold higher apparent permeability coefficient (Papp) than darunavir [1]: 6.5 fold; fold lower Ki for PR20 relative to darunavir binding affinity (KL) [2]: about 2 fold; antiviral activity against highly darunavir resistant HIV-1 (in words) [5]: moderate antiviral activity
COc1ccc(S(=O)(=O)N(C[C@H]2CCC(=O)N2)C[C@@H](O)[C@H](Cc2ccccc2)NC(=O)O[C@@H]2C[C@@H]3CCO[C@@H]3C2)cc1 [GRL-02031A]			neither GRL-02031A nor GRL-0519A inhibits the autoprocessing		binding affinity for PR20 (in words) [6]: weaker affinity for PR20
COc1ccc(S(=O)(=O)N(CC(C)C)C[C@@H](O)[C@H](Cc2ccccc2)NC(=O)O[C@H]2CO[C@H]3OC[C@H](OC)[C@H]32)cc1 [GRL-4410A]	no significant improvement was observed in the inhibition	1000 to 2000 nM			fold weaker inhibition (Ki) of PR20 than wild-type PR [8]: 1000 fold
CC(C)(C)NC(=O)[C@@H]1C[C@@H]2CCCC[C@@H]2CN1C[C@@H](O)[C@H](Cc1ccccc1)NC(=O)[C@H](CC(N)=O)NC(=O)c1ccc2ccccc2n1 [saquinavir]				inhibited most effectively	
COC(=O)N[C@H](C(=O)N[C@@H](Cc1ccccc1)[C@@H](O)CN(Cc1ccc(-c2ccccn2)cc1)NC(=O)[C@@H](NC(=O)OC)C(C)(C)C)C(C)(C)C [atazanavir]				inhibited most effectively	
CC(C)CN(C[C@@H](O)[C@H](Cc1ccccc1)NC(=O)O[C@H]1CO[C@H]2OCC[C@H]21)S(=O)(=O)c1ccc(N)cc1 [darunavir]			like darunavir, neither GRL-02031A nor GRL-0519A inhibits the autoprocessing	inhibited most effectively	
